Measurements as given in PMC3163380, “Design, Synthesis and Biological Evaluation of Novel Pyrimido[4,5-d]pyrimidine CDK2 Inhibitors as Anti-Tumor Agents” (Scientia Pharmaceutica, 2011).

Assays:
HOP-92 = experiment: NCI primary anti-cancer assay (SRB), HOP-92; format: cell-based; details: Homo sapiens; 10^−5M; Non-Small Cell Lung Cancer HOP-92; read-out: Growth Inhibition %
Description: (§1) Evaluation of anti-cancer activities on pyrimido[4,5-d]pyrimidine derivatives were performed at the National Cancer Institute (NCI) USA. First the newly synthesized compounds have been evaluated in primary anti-cancer assay at 10^−5M concentration against 60 human tumor cell lines then the active compounds were tested at 5 different concentrations against the same 60 human tumor cell lines. The biological data for the newly synthesized compounds are compiled in table 2
(§2) The cytotoxic activity was measured in vitro for the newly synthesized compounds using the SulfoRhodamine-B stain (SRB) assay using the method of Skehan. Cells were plated in 96-multiwell microtiter plate (10^4 cells/well) for 24 h before treatment with the compound(s) to allow attachment of cell to the wall of the plate. Tested compounds were dissolved in DMSO and diluted with saline to the appropriate volume. Triplicate wells were prepared for each individual dose. Monolayer cells were incubated with the compound(s) for 48 h at 37 °C and in atmosphere of 5% CO2. After 48 h, cells were fixed, washed, and stained for 30 min with 0.4% (wt/vol) with SRB dissolved in 1% acetic acid. Unbound dye was removed by four washes with 1% acetic acid, and attached stain was recovered with Tris-EDTA buffer. Color intensity was measured in an ELISA reader. The relation between surviving fraction and drug concentration is plotted to get the survival curve for tumor cell line after the specified time.

MCF7 = experiment: NCI primary anti-cancer assay (SRB), MCF7; format: cell-based; details: Homo sapiens; 10^−5M; Breast Cancer MCF7; read-out: Growth Inhibition %
Description: as §1
as §2, with “The relation between surviving fraction and drug concentration is plotted to get the survival curve for tumor cell line after the specified time.” left out

CDK2/CyclinA = target: T1, CDK2/CyclinA (Homo sapiens, UniProt P24941); experiment: CDK2/cyclinA enzymatic activity inhibition assay (32P-ATP, histone H1); format: biochemical; details: mean of at least two independent experiments
T1 construct: hexa-histidine (N); made in house; host or cells: sf21 insect cells (baculovirus)

K-562 = experiment: NCI primary anti-cancer assay (SRB), K-562; format: cell-based; details: Homo sapiens, K562; 10^−5M; Leukemia K-562; read-out: Growth Inhibition %
Description: as §1, §2

CDK4/CyclinD = CDK4/CyclinD (Homo sapiens, UniProt P11802); experiment: CDK4/CyclinD inhibition assay; format: biochemical; details: mean of at least two independent experiments
[1] = target: T2, human EGFR tyrosine kinase domain (Homo sapiens, UniProt P00533); experiment: EGFR tyrosine kinase inhibition assay; format: biochemical; details: mean of at least two independent experiments
T2 construct: C-terminal human EGFR tyrosine kinase domain

UACC-257 = experiment: NCI primary anti-cancer assay (SRB), UACC-257; format: cell-based; details: Homo sapiens; 10^−5M; Melanoma UACC-257; read-out: Growth Inhibition %
Description: as §1, §2

UO-31 = experiment: NCI primary anti-cancer assay (SRB), UO-31; format: cell-based; details: Homo sapiens; 10^−5M; Renal Cancer UO-31; read-out: Growth Inhibition %
Description: as §1, §2

HS 578T = experiment: NCI primary anti-cancer assay (SRB), HS 578T; format: cell-based; details: Homo sapiens; 10^−5M; Breast Cancer HS 578T; read-out: Growth Inhibition %
Description: as §1, §2

A549/ATCC = experiment: NCI primary anti-cancer assay (SRB), A549/ATCC; format: cell-based; details: Homo sapiens; 10^−5M; Non-Small Cell Lung Cancer A549/ATCC; read-out: Growth Inhibition %
Description: as §1, §2

SNB-75 = experiment: NCI primary anti-cancer assay (SRB), SNB-75; format: cell-based; details: Homo sapiens; 10^−5M; CNS Cancer SNB-75; read-out: Growth Inhibition %
Description: as §1, §2

T-47D = experiment: NCI primary anti-cancer assay (SRB), T-47D; format: cell-based; details: Homo sapiens, T47D; 10^−5M; Breast Cancer T-47D; read-out: Growth Inhibition %
Description: as §1, §2

MOLT-4 = experiment: NCI primary anti-cancer assay (SRB), MOLT-4; format: cell-based; details: Homo sapiens; 10^−5M; Leukemia MOLT-4; read-out: Growth Inhibition %
Description: as §1, §2

RXF 393 = experiment: NCI primary anti-cancer assay (SRB), RXF 393; format: cell-based, human; details: Renal Cancer RXF 393; for inhibition at 10 µM: Homo sapiens, RXF 393, 10^−5M, read-out: Growth Inhibition %
Description: as §1, §2

SF-539 = experiment: NCI primary anti-cancer assay (SRB), SF-539; format: cell-based; details: Homo sapiens; 10^−5M; CNS Cancer SF-539; read-out: Growth Inhibition %
Description: as §1, §2

RPMI-8226 = experiment: NCI primary anti-cancer assay (SRB), RPMI-8226; format: cell-based; details: Homo sapiens; 10^−5M; Leukemia RPMI-8226; read-out: Growth Inhibition %
Description: as §1, §2

HL-60(TB) = experiment: NCI primary anti-cancer assay (SRB), HL-60(TB); format: cell-based; details: Homo sapiens; 10^−5M; Leukemia HL-60(TB); read-out: Growth Inhibition %
Description: as §1, §2

OVCAR-8 = experiment: NCI primary anti-cancer assay (SRB), OVCAR-8; format: cell-based; details: Homo sapiens; 10^−5M; Ovarian Cancer OVCAR-8; read-out: Growth Inhibition %
Description: as §1, §2

BT-549 = experiment: NCI primary anti-cancer assay (SRB), BT-549; format: cell-based; details: Homo sapiens; 10^−5M; Breast Cancer BT-549; read-out: Growth Inhibition %
Description: as §1
as §2, with “The relation between surviving fraction and drug concentration is plotted to get the survival curve for tumor cell line after the specified time.” left out

IGROV1 = experiment: NCI primary anti-cancer assay (SRB), IGROV1; format: cell-based; details: Homo sapiens, IGROV-1; 10^−5M; Ovarian Cancer IGROV1; read-out: Growth Inhibition %
Description: as §1, §2

MDA-MB-231/ATCC = experiment: NCI primary anti-cancer assay (SRB), MDA-MB-231/ATCC; format: cell-based; details: Homo sapiens; 10^−5M; Breast Cancer MDA-MB-231/ATCC; read-out: Growth Inhibition %
Description: as §1, §2

[2] = tested on: 60 human tumor cell lines; experiment: NCI primary anti-cancer assay, summary over tumor cell lines; format: cell-based; details: 10^−5M, Non-small cell lung cancer, Ovarian cancer, Leukemia and Melanoma lines / different tumor cell lines, read-out: growth inhibitions (range over cell lines)
Description: as §1, §2

T2 sequence (P00533 712-979 limits assumed): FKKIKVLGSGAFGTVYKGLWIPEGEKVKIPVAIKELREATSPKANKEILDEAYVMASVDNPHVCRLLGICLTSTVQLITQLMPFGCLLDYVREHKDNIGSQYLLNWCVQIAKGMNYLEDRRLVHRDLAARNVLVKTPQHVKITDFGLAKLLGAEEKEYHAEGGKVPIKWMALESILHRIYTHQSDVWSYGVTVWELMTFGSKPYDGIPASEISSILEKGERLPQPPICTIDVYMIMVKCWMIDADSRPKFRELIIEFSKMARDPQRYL
CDK4/CyclinD, sequence (P11802 whole entry, species assumed, the tested form may be a part): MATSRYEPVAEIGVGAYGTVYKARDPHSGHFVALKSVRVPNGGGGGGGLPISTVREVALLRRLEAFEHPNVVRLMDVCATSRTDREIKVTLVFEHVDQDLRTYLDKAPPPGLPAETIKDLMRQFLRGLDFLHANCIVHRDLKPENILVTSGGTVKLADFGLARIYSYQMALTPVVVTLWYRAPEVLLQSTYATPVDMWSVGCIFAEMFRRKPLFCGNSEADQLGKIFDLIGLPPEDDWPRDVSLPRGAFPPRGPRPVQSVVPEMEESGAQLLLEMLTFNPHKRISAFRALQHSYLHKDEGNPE
CDK4/CyclinD, sequence (P24385 whole entry partner, species assumed, the tested form may be a part): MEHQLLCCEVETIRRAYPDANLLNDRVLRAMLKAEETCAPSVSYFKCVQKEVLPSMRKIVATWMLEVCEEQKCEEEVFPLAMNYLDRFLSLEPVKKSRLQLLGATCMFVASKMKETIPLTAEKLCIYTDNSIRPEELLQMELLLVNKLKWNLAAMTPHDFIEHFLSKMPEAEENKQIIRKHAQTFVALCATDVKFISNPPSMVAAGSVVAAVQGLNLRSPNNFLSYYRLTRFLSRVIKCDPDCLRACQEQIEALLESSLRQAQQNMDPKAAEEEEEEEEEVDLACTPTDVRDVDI

| Compound | inhibition at 10 µM (HOP-92) [%] | IC50 (CDK2/CyclinA) [µM] | inhibition at 10 µM (K-562) [%] | IC50 (CDK4/CyclinD) [µM] | IC50 CDK4/CyclinD (CDK4/CyclinD) | melting point [°C] | IC50 [1] [µM] | inhibition at 10 µM (UACC-257) [%] | inhibition at 10 µM (UO-31) [%] | inhibition at 10 µM (A549/ATCC) [%] | inhibition at 10 µM (SNB-75) [%] | inhibition at 10 µM (T-47D) [%] | inhibition at 10 µM (MOLT-4) [%] | inhibition at 10 µM (RXF 393) [%] | inhibition at 10 µM (RPMI-8226) [%] | inhibition at 10 µM (HL-60(TB)) [%] | inhibition at 10 µM (OVCAR-8) [%] | inhibition at 10 µM (IGROV1) [%] | inhibition at 10 µM (MDA-MB-231/ATCC) [%] | also measured |
| --- | --- | --- | --- | --- | --- | --- | --- | --- | --- | --- | --- | --- | --- | --- | --- | --- | --- | --- | --- | --- |
| O=c1[nH]c(Nc2ccc(S(=O)(=O)O)cc2)nc2nc(Nc3ccc(NC(=S)Nc4ccccc4)cc3)nc(-c3ccc(O)cc3O)c12 [Compound 7g, 4-{[5-(2,4-Dihydroxyphenyl)-4-oxo-7-({4-[(phenylcarbamothioyl)amino]phenyl}amino)-3,4-dihydropyrimido[4,5-d]pyrimidin-2-yl]amino}benzenesulfonic acid] | 29.1 | 6.5 | 20.1 | 5.21 | very poor activity | > 300 | 7.3 | 32.7 |  |  |  |  |  |  |  |  |  |  |  | inhibition at 10 µM (MCF7): 33.3% |
| Cc1cc(C)nc(NS(=O)(=O)c2ccc(Nc3nc(C)c4c(=O)[nH]c(Nc5ccc(S(=O)(=O)O)cc5)nc4n3)cc2)n1 [Compound 7i, 4-{[7-({4-[(4,6-Dimethylpyrimidin-2-yl)sulfamoyl]phenyl}amino)-5-methyl-4-oxo-3,4-dihydro-pyrimido[4,5-d]pyrimidin-2-yl]amino}benzenesulfonic acid] |  | > 10 |  | > 10 | no activity | > 300 | 8.1 |  | 30.6 | 39.1 | 23.2 | 30.1 |  |  |  |  |  |  |  | inhibition at 10 µM (HS 578T): 26.2% |
| Cc1nc(Nc2ccc(NC(=S)Nc3ccccc3)cc2)nc2nc(Nc3cccc(Cl)c3)[nH]c(=O)c12 [Compound 7e, 1-[4-({7-[(3-Chlorophenyl)amino]-4-methyl-5-oxo-5,6-dihydropyrimido[4,5-d]pyrimidin-2-yl}amino)phenyl]-3-phenylthiourea] | 39.6 | 0.25 | 28.2 | 2.55 |  |  | 4.9 |  |  |  |  |  | 35 | 113 | 42.8 | 42.9 |  |  |  | inhibition at 10 µM (HS 578T): 32.9%; inhibition at 10 µM (SF-539): 23.5% |
| Cc1cc(C)nc(NS(=O)(=O)c2ccc(Nc3nc(-c4ccc(O)cc4O)c4c(=O)[nH]c(SCc5ccccc5)nc4n3)cc2)n1 [Compound 6b, 4-{[7-(Benzylsulfanyl)-4-(2,4-dihydroxyphenyl)-5-oxo-5,6-dihydropyrimido[4,5-d]pyrimidin-2-yl]amino}-N-(4,6-dimethylpyrimidin-2-yl)benzenesulfonamide] |  | 2.8 | 20.1 | 2.14 |  | > 300 | 5.5 |  |  |  |  |  |  |  |  |  | 38.7 | 30.7 |  | inhibition at 10 µM (BT-549): 29.1% |
| O=c1[nH]c(SCc2ccccc2)nc2nc(Nc3ccc(NC(=S)Nc4ccccc4)cc3)nc(-c3ccc(O)cc3O)c12 [Compound 6a, 1-(4-{[7-(Benzylsulfanyl)-4-(2,4-dihydroxyphenyl)-5-oxo-5,6-dihydro-pyrimido[4,5-d]pyrimidin-2-yl]amino}phenyl)-3-phenylthiourea] | 103 | 5 |  | > 10 | no activity | > 300 | 9.3 |  |  |  |  | 26.9 |  | 33.8 |  |  |  |  |  |  |
| O=c1[nH]c(Nc2cccc(Cl)c2)nc2nc(Nc3ccc(NC(=S)Nc4ccccc4)cc3)nc(-c3ccc(O)cc3O)c12 [Compound 7d, 1-[4-({7-[(3-Chlorophenyl)amino]-4-(2,4-dihydroxyphenyl)-5-oxo-5,6-dihydro-pyrimido[4,5-d]pyrimidin-2-yl}amino)phenyl]-3-phenylthiourea] |  | > 10 |  | 6.88 | very poor activity | > 300 | > 10 | 79.5 | 30.7 | 44.7 |  |  |  |  | 30.4 |  | 26.8 | 39.7 | 21.4 |  |
| Cc1cc(C)nc(NS(=O)(=O)c2ccc(Nc3nc(C)c4c(=O)[nH]c(Nc5cccc(Cl)c5)nc4n3)cc2)n1 [Compound 7f, 4-({7-[(3-Chlorophenyl)amino]-4-methyl-5-oxo-5,6-dihydropyrimido[4,5-d]pyrimidin-2-yl}amino)-N-(4,6-dimethylpyrimidin-2-yl)benzenesulfonamide] | 34.8 | 0.05 | 26.5 | 0.86 |  | > 300 | > 10 | 57.9 | 40.3 | 52 | 28.5 |  |  |  | 58.9 | 21.6 | 21.8 | 54.4 | 30.4 | inhibition at 10 µM [2]: 50 to 70% |
| Cc1nc(Nc2ccc(NC(=S)Nc3ccccc3)cc2)nc2nc(SCc3ccccc3)[nH]c(=O)c12 [Compound 6c, 1-(4-{[7-(Benzylsulfanyl)-4-methyl-5-oxo-5,6-dihydropyrimido[4,5-d]pyrimidin-2-yl]amino}-phenyl)-3-phenylthiourea] |  | 1.5 | 27.9 | 3.11 |  | > 300 | > 10 | 25.2 |  | 42.1 |  |  |  | 124 | 33 | 24 |  | 34.3 | 23.1 | Growth Inhibition % (RXF 393; 10^−5M): 124.01%; inhibition at 10 µM (SF-539): 36.7% |
| Cc1cc(C)nc(NS(=O)(=O)c2ccc(Nc3nc(C)c4c(=O)[nH]c(SCc5ccccc5)nc4n3)cc2)n1 [Compound 6d, 4-{[7-(Benzylsulfanyl)-4-methyl-5-oxo-5,6-dihydropyrimido[4,5-d]pyrimidin-2-yl]amino}-N-(4,6-dimethylpyrimidin-2-yl)benzenesulfonamide] | 27 | 2.5 |  | 0.66 |  | > 300 | 7.8 |  |  | 21.2 |  |  | 43.4 |  |  |  |  |  |  |  |
| Cc1cc(C)nc(NS(=O)(=O)c2ccc(Nc3nc(C)c4c(=O)[nH]c(NCc5ccccc5)nc4n3)cc2)n1 [Compound 7c, 4-{[7-(Benzylamino)-4-methyl-5-oxo-5,6-dihydropyrimido[4,5-d]pyrimidin-2-yl]amino}-N-(4,6-dimethylpyrimidin-2-yl)benzenesulfonamide] |  | 2.6 | 32.8 | > 10 | no activity |  | 6.6 | 71.4 | 39.5 | 64.4 | 43.1 | 23.4 | 22.6 |  | 50.7 | 23.1 |  | 61.7 |  | inhibition at 10 µM [2]: 50 to 70% |
